From patent US8012944B2, “Method for treating cancer using IAP antisense oligomer and chemotherapeutic agent” (Pharmascience Inc., priority 2003, dated 2011)

Columns and labels:
Assay type in all cases: cell-based, human
[1] = test system: XIAP mRNA; assay: XIAP mRNA knock-down in H460 cells (real-time RT-PCR / TaqMan); details: real-time PCR, 1.2 μM, 6 hours of transfection (FIG. 6)
Summary of the method: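 NCI-H460 cells transfected with phosphorothioate antisense oligonucleotides via Lipofectamine 2000; RNA isolated after 6 h treatment. XIAP mRNA quantified by one-step TaqMan real-time RT-PCR, comparative Ct (threshold 30× baseline SD), normalized to GAPDH and expressed relative to untreated control cells.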

[2] = test system: XIAP mRNA; assay: as above; details: 2 × 2 MBO; NCI-H460 cells, 9 hours post-transfection; relative level (mock control 1.01)
[3] = test system: Bcl-2 and Bax; assay: Bcl-2:Bax ratio in H460 cells (western blot); details: 1.2 μM
Protocol: FIGS. 11A and 11B are schematic illustrations showing XIAP oligonucleotide-mediated effects on caspase activation. The effect of XIAP oligonucleotides F3, G4, or C5, or their respective RP and SC ODN controls at 1.2 μM on the expression of pro-caspase-3, PARP (both full length (116 kDa) and processed (85 kDa)) (FIG. 10A) and Bcl-2 and Bax protein levels (FIG. 10B) in transfected H460 cells compared to control is shown. Proteins expression was analyzed by western blotting. Bcl-2 and Bax protein levels were normalized to cellular actin levels and quantified by densitometry. […]
The cells or tumor tissue samples were lysed with ice-cold lysis buffer (50 mM Tris, 150 mM NaCl, 2.5 mM EDTA, 0.1% SDS, 0.5% sodium deoxycholate, 1% NP-40, 0.02% sodium azide) containing protease inhibitors (Complete-Mini protease inhibitor tablets; Boehringer Mannheim GmBH, Mannheim, Germany). […] Protein content in the lysed extracts was determined using a detergent-compatible Bio-Rad assay (Bio-Rad Labs, Hercules, Calif.). […] Proteins were detected by enhanced chemiluminescence (ECL; Amersham Pharmacia Biotech, Buckinghamshire, England) and visualized after exposure to Kodak autoradiography film. Scanning densitometry (Molecular Dynamics, Sunnyvale, Calif.) was performed to quantify band intensities by volume/area integration. […]

For “GCTGAGTCTCCATATTGCC [G4 AS] (chemistry not given here)”, the “reduction of XIAP mRNA level compared to untreated control” value [1] was 55%, the “XIAP RNA” value [2] was 0.48 and the “ratio of Bcl-2:Bax” value [3] was “unchanged”.
